Results as given in patent publication US9745288B2, “Compounds and methods for treating cancer by inhibiting the urokinase receptor” (Indiana University Research and Technology Corporation, priority 2011, dated 2017).
Each block holds one molecule with its values, some of them ahead of it.

Legend:
MDA-MB-231 cells [1] = test: Invasion assay (Boyden chamber, Matrigel); type: cell-based, human
Procedure: Invasion and Migration Assays. These assays were performed using BD BioCoat Matrigel Invasion Chamber (Cat. 354480, BD Biosciences, Bedford, Mass.). The undersurface of the inserts was coated with 30 μg/mL of fibronectin (Sigma, F2006) in PBS at 4° C. overnight. The inserts were washed with PBS once. Then, 0.5 mL of serum-free medium was separately added to the upper and lower chambers to equilibrate the Matrigel invasion chambers at 37° C., 5% CO2 for 2 hours. After starvated with serumfree DMEM or 4 hours, subconfluent MDA-MB-231 cells were trypsinized and resuspended in 0.1% FBS DMEM. 5×10^4 cells in 500 μL of 0.1% FBS DMEM containing various compounds or 1.0% DMSO (as control) were added to the upper chambers. 500 μL of 10% FBS DMEM containing the same concentration of the same compound or DMSO were added to the lower chambers. We incubated the invasion chambers for 3 hours at 37° C., 5% CO2. Non-invaded cells were removed from the upper chamber with a cotton swab. The invaded cells were fixed with 100% methanol and then stained with Hematoxylin Stain Harris Modified Method (Fisher, SH30-500D). The filters were washed with water 3 times. Filters were air dried and the invaded cells were counted in ten randomly selected microscopic fields (×200 magnification). The experiment was performed in triplicate per group and shown by mean±SE.
Whether the two active compounds affected invasion, adhesion and migration in cell culture in a concentration-dependent study was tested (FIGS. 2A, 2B). For invasion, the Transwell (or Boyden) chamber assay was used.^28 The assay uses a chamber with two compartments that are separated by a microporous membrane known as Matrigel consisting of components of the ECM such as collagen, laminin and fibronectin.^28
Invasive tumor cells degrade the Matrigel and migrate through the membrane to the lower compartment. […] FIGS. 2A and 2B show the effect of representative presently disclosed compounds on MDA-MB-231 metastasis. Percent inhibition of invasion, migration, and adhesion of MDA-MB-231 by compounds that bind to uPAR.

MDA-MB-231 cells [2] = test: Adhesion assay on fibronectin-coated wells; type: cell-based, human; conditions: MDA-MB-231
Procedure: Adhesion Assay. Quantitative cell adhesion assays were carried out in nontissue culture treated 96-well microtiter plates (Evergreen Scientific, Los Angeles, Calif.) which were coated with 15 μg/mL fibronectin (Sigma) for 1 h at room temperature. Fibronectin coated and uncoated control wells were blocked for 1 h with 3% heat denatured bovine serum albumin (BSA) at 37° C. Cells were split one day prior to the experiment to achieve a subconfluent culture. […] The wells were washed and the number of adherent cells was quantified by crystal violet staining at 570 nm.^19,20 The results were shown by means±SE.

MDA-MB-231 cells [3] = test: MTT proliferation assay; type: cell-based, human; conditions: MDA-MB-231
Procedure: (§1) Proliferation Assay. The procedure consisted of culturing cells at 37° C. in 10% FBS-DMEM medium containing various amounts of compound. 5 mM compound stock in 100% DMSO was 1:50 diluted in medium, filtered, and serially diluted in 96-well plate. Then seeded cells were incubated for 3 days. Viable cells were quantified by MTT assay at absorbance of 570 and 630 nm.
FIGS. 4A-4D show inhibition of MDA-MB-231 proliferation and mechanism of cell killing. To gain insight into the mechanism by which these compounds are inhibiting growth, a flow cytometry analysis with annexin V-FITC and PI staining was performed. The level of apoptotic cells in MDA-MB-231 was assessed by the percentage of Annexin V-positive/PI-negative cells present after exposure of MDAMB-231 cells to increasing concentration of IPR-69 for 24 h (FIG. 4B). At a concentration of 50 μM, IPR-69 induced significant apoptosis as evidenced by a 51% and 21% increase in apoptotic cells (Annexin V positive/PI-negative) and necrotic cells (Annexin V-positive/PI-positive), respectively. […] At a concentration of 50 μM, 26% of cells were necrotic (Annexin V positive/PI-positive), a 22% increase over control. 46% of cells were apoptotic (Annexin V positive/PInegative), compared with 4% of control.

MMP-9 = test: Gelatin zymography of MDA-MB-231 conditioned medium; type: cell-based, human
Procedure: Gelatin Zymography. MDA-MB-231 cells were treated with different concentrations of uPAR compounds in serum free medium for 24 h, the conditioned medium were collected, concentrated by Amicon Ultra centrifugal filter units (Millipore, #UFC500324), proteins were normalized and electrophoresed on sodium dodecyl sulfate (SDS)-polyacrylamide gels (10%) containing 1 mg/mL gelatin. After electrophoresis, the gel was washed twice in 50 mM Tris-HCl (pH 7.6) containing 5 mM CaCl2 and 2.5% Triton X-100 for 30 minutes at room temperature and incubated in buffer that contained 50 mM Tris-HCl (pH 7.6), 200 mM NaCl, 10 mM CaCl2 at 37° C. for 36 h. Then, the gels were stained with 0.05% Coomassie brilliant blue (CBB) and destained with 30% methanol in 10% acetic acid. Areas of gelatinolytic degradation appeared as transparent bands on the blue stained background of the gel. Data were quantified using Image J.
To degrade collagen within the ECM, malignant cells unleash a series of extracelullar proteases known as matrix metalloproteinases (MMPs).

PANC-1 cells [4] = test: MTT assay; type: cell-based, human
Procedure: as §1
Some of the compounds of the presently disclosed subject matter were tested in a MTT assay using a human pancreas carcinoma cell line PANC-1 (FIG. 12A). […] One of these compounds, IPR-737, was further tested in a MTT assay using MDA-MB-231, AsPC-1 (human pancreas adenocarcinoma cell line), and PANC-1 cells.

PANC-1 cells [5] = test: PANC-1 invasion assay; type: cell-based, human
[6] = system: different signaling molecules; test: Western blot analysis of signaling; type: cell-based; conditions: n=1
Procedure: In light of the previously reported role of uPAR in signaling, the effect of IPR-993, IPR-737, IPR-81 and IPR-69 on signaling was studied by Western blot analysis (FIG. 23). A concentration-dependent study was carried out for IPR-737.

uPAR = molecular target: T1, uPAR (Homo sapiens, UniProt Q03405); test: Fluorescence polarization assay, displacement of AE147-FAM peptide from uPAR; type: binding; conditions: Table 1, assay not stated; for Ki: read-out: Ki
T1 construct: human uPAR (suPAR, amino acids 1-283) was expressed in stably transfected Drosophila S2 cells; made in house; host or cells: Drosophila S2 cells
T1 sequence (Q03405 23-305): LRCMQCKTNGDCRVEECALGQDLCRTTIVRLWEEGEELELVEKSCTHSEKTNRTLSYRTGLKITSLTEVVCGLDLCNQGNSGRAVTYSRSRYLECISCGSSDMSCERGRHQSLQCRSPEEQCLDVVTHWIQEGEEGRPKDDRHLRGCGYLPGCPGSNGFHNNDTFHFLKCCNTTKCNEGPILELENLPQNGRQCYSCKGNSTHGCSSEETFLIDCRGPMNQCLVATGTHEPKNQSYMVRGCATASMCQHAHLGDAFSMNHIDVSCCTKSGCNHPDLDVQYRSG
Procedure: Fluorescence Polarization Assay. The fluorescence polarization assay used fluorescent AE147-FAM peptide. uPAR was titrated against the fluorescent AE147-FAM peptide and data were fit to a sigmoidal dose-dependent curve as the FP value increases to determine the Kd of binding using Sigmaplot (Systat Software Inc., CA). Inhibitor screens were carried out in triplicates using 500 nM uPAR, 100 nM AE147-FAM, and inhibitor concentrations ranging from 0.78 μM to 100 μM in 50 μL volumes in black BD Falcon 384-well microplate. […] Polarized fluorescence intensities were measured immediately following addition of inhibitors to the protein-peptide mix at room temperature on an EnVision® Multilabel Plate Readers (PerkinElmer) with excitation and emission wavelengths of 485 nm and 530 nm, respectively.
Cloning, Expression and Purification of uPAR. uPAR was successfully cloned, expressed and purified. From 1 L of culture, nearly 12 mg of protein was expressed, which will be sufficient to conduct the experiments disclosed herein. Briefly, a truncated, soluble form of human uPAR (suPAR, amino acids 1-283) was expressed in stably transfected Drosophila S2 cells using the Drosophila Expression System (Invitrogen). suPAR was obtained by a two-step purification process. The conditioned culture medium was filtered (0.45 μm) and loaded onto a DEAE Sephadex column equilibrated with 20 mM Tris (pH 7.4). The protein was eluted with a gradient of 0-1 M NaCl in 20 mM Tris (pH 7.4). suPAR containing fractions were then pooled, concentrated, and filtered prior to RP-HPLC using a semi-preparative (10×25 cm) C8 column. A 1 mL aliquot of the concentrated protein was loaded onto the column at initial gradient conditions of 95% eluent A and 5% eluent B, where eluent A was 0.1% TFA/100% H2O and eluent B was 70:30 acetonitrile/[…]. The protein elutes using a gradient of 5% eluent A to 95% eluent B over 46 minutes at a flow rate of 4 mL/min. Under these conditions, the protein eluted as a single sharp peak (tR=29 min). […] Surface plasmon resonance confirmed that the purified uPAR was capable of binding to uPA. The identity of the 60 kDa band was established by immunoblot (not shown).
The design of a fluorescent probe was guided by the three-dimensional structure of uPAR in complex with peptide AE147.^27 As this peptide binds at the same site that is occupied by the growth factor-like domain of uPA, it provides the basis for the development of a competition assay to assess binding to this site. Flurescein was introduced to the N-terminus of AE147.
All 210 compounds were screened at initial concentration of 50 μM for displacement of AE147-FAM peptide. Eleven compounds gave polarization readings that were five times that of the standard deviation of the control peptide (FIG. 1B). Secondary concentration-dependent study for these eleven compounds was performed.
The resulting inhibition curves were used to determine an inhibition constant, Ki, for each.

CYP2C9 = CYP2C9 (Homo sapiens, UniProt P11712); test: Fluorescence-based CYP2C9 inhibition assay; conditions: 5 μM
CYP2C9, sequence (P11712 whole entry): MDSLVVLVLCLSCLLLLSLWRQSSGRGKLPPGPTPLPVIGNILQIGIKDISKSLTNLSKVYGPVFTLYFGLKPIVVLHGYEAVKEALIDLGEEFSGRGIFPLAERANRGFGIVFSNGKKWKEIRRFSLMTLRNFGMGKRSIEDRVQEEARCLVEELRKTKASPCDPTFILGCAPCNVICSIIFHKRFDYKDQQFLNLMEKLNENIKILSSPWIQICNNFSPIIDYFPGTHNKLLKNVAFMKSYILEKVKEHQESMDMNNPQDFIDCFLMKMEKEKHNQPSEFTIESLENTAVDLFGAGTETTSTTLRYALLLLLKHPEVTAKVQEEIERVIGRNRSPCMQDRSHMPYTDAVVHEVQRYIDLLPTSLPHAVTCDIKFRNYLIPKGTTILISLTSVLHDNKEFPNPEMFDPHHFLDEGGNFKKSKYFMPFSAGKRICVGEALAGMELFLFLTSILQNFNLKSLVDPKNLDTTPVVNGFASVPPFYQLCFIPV
Procedure: CYP metabolism was measured using a fluorescence-based assay designed by Cohen et al.,^41 recently implemented by Invitrogen (Carlsbad, Calif.).

Compound: CCCCCCOc1cccc(N2C(=O)C(O)=C(C(=O)c3ccccc3)C2c2ccc(CC)cc2)c1 (stereo not drawn) [IPR-993]
cell invasion (MDA-MB-231 cells [1]): inhibition of activity with increasing concentrations of compound | cell adhesion (MDA-MB-231 cells [2]): some activity | cell proliferation / viability (MTT, words) (MDA-MB-231 cells [3]): inhibited cell viability | MMP-9 activity in gelatin zymography (MMP-9): did not appear to demonstrate impairment of MMP-9 activity | cell proliferation / viability (MTT, words) (PANC-1 cells [4]): inhibited cell viability | cell viability in the PANC-1 invasion assay (PANC-1 cells [5]): little decrease in cell viability | PANC-1 invasion (PANC-1 cells [5]; increasing concentrations): inhibition of activity with increasing concentrations of compound | effect on signaling molecules [6]: did not seem to be much of an effect

IC50 (uPAR): 58.7 µM | Ki (uPAR): 17.9 µM
Compound: c1ccc(CNCCC(Cc2ccccc2)c2ccc3c(c2)OCO3)cc1 (stereo not drawn) [IPR-021]

IC50 (uPAR): 24.2 µM | Ki (uPAR): 7.3 µM
Compound: COc1ccccc1C(CCNCc1ccccc1)c1ccc2c(c1)OCO2 (stereo not drawn) [IPR-022]

Compound: Nc1ccc(S(=O)(=O)Nc2ccnn2-c2ccccc2)cc1 [sulphaphenazole, reference compound]
inhibition of CYP2C9 (CYP2C9): approximately 69%

IC50 (uPAR): 42 µM | Ki (uPAR): 12.8 µM
Compound: COc1ccc(N2C(=O)CCC(C(=O)Nc3ccc(OC)c(Cl)c3)C2c2ccc(OC)c(OC)c2)cc1 (stereo not drawn) [IPR-108]
